Source: patent publication US20260234116A1, “CYTOTOXIC EPOXYKETONE COMPOUNDS, PRECURSORS, COMPOSITIONS, AND METHODS OF USE” (Memorial Sloan-Kettering Cancer Center, priority 2023, published 2026)

What was measured:
EpnF = EpnF (Streptomyces hygroscopicus, UniProt V5RMU9); test: Semiquantitative epoxide capture assay (EpnF-catalyzed epoxyketone formation); format: biochemical; conditions: 1 μM EpnF, 250 μM β-ketoacid substrate, 1 h; positive control 11n (FIG. 1)
Procedure: Recombinant EpnF was diluted to 1 μM in 180 μL EpnF Buffer in an 1.5 mL Eppendorf tube. The β-ketoacid 11 was added at various concentrations to a total reaction volume of 200 μL. The mixture was incubated in a heated shaker at 37° C. and 225 rpm for 1 h. The reaction mixture (30 μL×3 technical replicates) was transferred to a white, opaque 96-well plate (PerkinElmer, OptiPlate-96). Each plate also contained 30 μL×3 technical replicates of EpnF Buffer as a negative control. To each well, 15 μL of 125 mM nicotinamide in EpnF Buffer was added and mixed by pipetting. The plate was sealed with an adhesive foil cover (VWR Adhesive Foil for Microplates) and heated in an oven at 80° C. for 1 h. The plate was cooled to rt and 25 μL of 15% (v/v) acetophenone in EtOH and 25 μL of 1 M potassium hydroxide in EtOH were added to each well, then mixed by pipetting. The plate was cooled on ice for 10 min, then 125 μL formic acid was added to each well. The plate was resealed and heated in an oven at 100° C. for 5 min. The plate was cooled on ice for 5-10 min, then analyzed (λex 370 nm, λem 430 nm) on a fluorescence plate reader (Molecular Devices Spectramax M3).
We adapted a reported epoxide capture assay [Nelis, H. J. C. F.; Sinsheimer, J. E. (1981) A sensitive fluorimetric procedure for the determination of aliphatic epoxides under physiological conditions. Anal. Biochem. 115, 151-157.] to 96-well plate format to detect formation of the epoxyketone products semiquantitatively. Each β-ketoacid substrate 11 was incubated with recombinant, purified EpnF (1 h), then reacted with nicotinamide and acetophenone (1 h) to form a fluorescent 1,6-naphthyridinone 24. The fluorescent signals were normalized to that resulting from the known substrate β-ketoacid 11n as a positive control [Zabala, D.; Cartwright, J. W.; Roberts, D. M.; Law, B. J. C.; Song, L.; Samborskyy, M.; Leadlay, P. F.; Micklefield, J.; Challis, G. L. (2016) A flavin-dependent decarboxylase-dehydrogenase-monooxygenase assembles the warhead of α,β-epoxyketone proteasome inhibitors. J. Am. Chem. Soc. 138, 4342-4345.].

U266 cells = test: In situ activation of β-ketoacid 11a by EpnF, cell viability, CellTitre-Glo, 48 h; format: cell-based; conditions: U266, 48 h
Procedure: For in situ activation of β-ketoacid 11a by EpnF, U266 cells were seeded in a 96-well plate as above, at 20,000 cells per well in […] RPMI. Recombinant EpnF (100 μM in EpnF Buffer) was diluted in RPMI to 5 μM concentration (300 μL final volume), then 10 μL of this enzyme solution was added to the plate wells to 0.5 μM EpnF final concentration. Stock solutions (20 mM) of β-ketoacid 11a and epoxyketone 12a in EtOH or DMSO, respectively, were diluted to 5% EtOH or DMSO in RPMI to provide working stocks at 1 mM. The working stocks were log-diluted to 1 mM-0.05 μM using RPMI containing 5% EtOH or 5% DMSO, respectively. Aliquots of compounds (10 μL) were added to the sample wells for final concentrations of 100-0.005 μM. Separate negative control wells were treated with 10 μL of 5% EtOH or 5% DMSO in RPMI (0.5% final concentration). The cells were incubated for 48 hr, then cell viability was measured with the CellTitre-Glo assay. Results of compound-treated wells were normalized to negative control wells.

Sequence of EpnF (V5RMU9 entry or part of it): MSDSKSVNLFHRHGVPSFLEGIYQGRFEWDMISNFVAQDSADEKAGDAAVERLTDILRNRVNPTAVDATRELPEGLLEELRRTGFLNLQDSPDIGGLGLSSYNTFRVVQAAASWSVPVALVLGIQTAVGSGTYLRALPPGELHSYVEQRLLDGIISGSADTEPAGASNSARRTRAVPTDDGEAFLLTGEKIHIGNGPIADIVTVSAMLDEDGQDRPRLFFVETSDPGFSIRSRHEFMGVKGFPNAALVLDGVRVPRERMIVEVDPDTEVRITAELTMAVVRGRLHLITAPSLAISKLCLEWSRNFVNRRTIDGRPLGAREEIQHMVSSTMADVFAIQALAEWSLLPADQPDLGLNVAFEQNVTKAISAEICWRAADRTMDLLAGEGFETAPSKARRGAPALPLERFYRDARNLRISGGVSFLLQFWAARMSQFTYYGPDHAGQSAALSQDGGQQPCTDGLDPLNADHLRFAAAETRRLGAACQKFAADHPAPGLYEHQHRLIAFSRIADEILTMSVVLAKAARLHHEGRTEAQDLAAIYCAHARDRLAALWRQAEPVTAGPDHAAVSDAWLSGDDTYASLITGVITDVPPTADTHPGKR

Which results are given for `CC(C)CCCCC(=O)N[C@@H](CO)C(=O)N[C@@H](CC(C)C)C(=O)C(C)(C)C(=O)O` [Compound 11a, (4S)-4-[(2S)-3-Hydroxy-2-(6-methylheptanamido)propanamido]-2,2,6-trimethyl-3-oxoheptanoic acid]?
EpnF-catalyzed formation of epoxyketone (epoxide capture) (EpnF): levels comparable to that of the positive control; cytotoxicity of β-ketoacid activated in situ (U266 cells; in presence of EpnF (0.5 μM)): cytotoxicity comparable to that of the corresponding isolated epoxyketone 12a; no cytotoxicity at up to (concentration) (U266 cells; prodrug alone, absence of EpnF): > 100 µM
